In ChEMBL document CHEMBL4177608, “Design and synthesis of benzimidazole-based Rho kinase inhibitors for the treatment of glaucoma” (Bioorg Med Chem, 2017):
Converted amounts (≈) assume the structure as drawn.

Key:
[1] = organism: Rattus norvegicus; assay: Reduction in intraocular pressure in Wistar rat model of dexamethasone-induced elevated IOP assessed as change in intraocular pressure in contralateral eye at 1 % w/v after 3 hrs by tonometry (reference value: 0%); assay type: ADME, organism-based; parameters: scale not given: the % may be the effect or the level left; details: in vivo
[2] = Antioxidant activity assessed as DPPH free radical scavenging activity at 25 ug/ml after 30 mins by spectrophotometric analysis; assay type: functional
[3] = organism: Rattus norvegicus; assay: Reduction in intraocular pressure in Wistar rat model of dexamethasone-induced elevated IOP assessed as change in intraocular pressure in contralateral eye at 1 % w/v after 4 hrs by tonometry (reference value: 0%); assay type: ADME, organism-based; parameters: scale not given: the % may be the effect or the level left; details: in vivo
[4] = Antioxidant activity assessed as DPPH free radical scavenging activity after 30 mins by spectrophotometric analysis; assay type: functional
[5] = Antioxidant activity assessed as DPPH free radical scavenging activity at 5 ug/ml after 30 mins by spectrophotometric analysis; assay type: functional
[6] = 1-Octanol/water partition coefficient, log P of compound at 2 mg after 24 hrs by spectrophotometry based shake flask method; assay type: physicochemical
[7] = organism: Rattus norvegicus; assay: Reduction in intraocular pressure in Wistar rat model of dexamethasone-induced elevated IOP assessed as change in intraocular pressure at 1 % w/v after 2.5 hrs by tonometry (reference value: 0%); assay type: functional; parameters: scale not given: the % may be the effect or the level left
[8] = organism: Rattus norvegicus; assay: Reduction in intraocular pressure in Wistar rat model of dexamethasone-induced elevated IOP assessed as change in intraocular pressure at 1 % w/v after 5 hrs by tonometry (reference value: 0%); assay type: functional; parameters: scale not given: the % may be the effect or the level left
[9] = organism: Rattus norvegicus; assay: Reduction in intraocular pressure in Wistar rat model of dexamethasone-induced elevated IOP assessed as change in intraocular pressure at 1 % w/v after 1.5 hrs by tonometry (reference value: 0%); assay type: functional; parameters: scale not given: the % may be the effect or the level left
[10] = organism: Rattus norvegicus; assay: Reduction in intraocular pressure in Wistar rat model of dexamethasone-induced elevated IOP assessed as change in intraocular pressure in contralateral eye at 1 % w/v after 2.5 hrs by tonometry (reference value: 0%); assay type: ADME, organism-based; parameters: scale not given: the % may be the effect or the level left; details: in vivo
[11] = organism: Rattus norvegicus; assay: Reduction in intraocular pressure in Wistar rat model of dexamethasone-induced elevated IOP assessed as change in intraocular pressure at 1 % w/v after 4 hrs by tonometry (reference value: 0%); assay type: functional; parameters: scale not given: the % may be the effect or the level left
[12] = organism: Rattus norvegicus; assay: Reduction in intraocular pressure in Wistar rat model of dexamethasone-induced elevated IOP assessed as change in intraocular pressure in contralateral eye at 1 % w/v after 1 hr by tonometry (reference value: 0%); assay type: ADME, organism-based; parameters: scale not given: the % may be the effect or the level left; details: in vivo, topical_or_ocular
[13] = organism: Rattus norvegicus; assay: Reduction in intraocular pressure in Wistar rat model of dexamethasone-induced elevated IOP assessed as change in intraocular pressure at 1 % w/v after 1 hr by tonometry (reference value: 0%); assay type: functional; parameters: scale not given: the % may be the effect or the level left
[14] = organism: Rattus norvegicus; assay: Reduction in intraocular pressure in Wistar rat model of dexamethasone-induced elevated IOP assessed as onset time for reduction in intraocular pressure at 1 % w/v by tonometry; assay type: functional
[15] = organism: Rattus norvegicus; assay: Reduction in intraocular pressure in Wistar rat model of dexamethasone-induced elevated IOP assessed as reduction in intraocular pressure at peak effect time at 1 % w/v by tonometry; assay type: functional; parameters: scale not given: the % may be the effect or the level left
[16] = organism: Rattus norvegicus; assay: Reduction in intraocular pressure in Wistar rat model of dexamethasone-induced elevated IOP assessed as change in intraocular pressure in contralateral eye at 1 % w/v after 1.5 hrs by tonometry (reference value: 0%); assay type: ADME, organism-based; parameters: scale not given: the % may be the effect or the level left; details: in vivo
[17] = Antioxidant activity assessed as DPPH free radical scavenging activity at 200 ug/ml after 30 mins by spectrophotometric analysis; assay type: functional
[18] = Antioxidant activity assessed as DPPH free radical scavenging activity at 150 ug/ml after 30 mins by spectrophotometric analysis; assay type: functional
[19] = organism: Rattus norvegicus; assay: Reduction in intraocular pressure in Wistar rat model of dexamethasone-induced elevated IOP assessed as change in intraocular pressure at 1 % w/v after 6 hrs by tonometry (reference value: 0%); assay type: functional; parameters: scale not given: the % may be the effect or the level left
[20] = organism: Rattus norvegicus; assay: Reduction in intraocular pressure in Wistar rat model of dexamethasone-induced elevated IOP assessed as change in intraocular pressure at 1 % w/v after 0.5 hrs by tonometry (reference value: 0%); assay type: functional; parameters: scale not given: the % may be the effect or the level left
[21] = organism: Rattus norvegicus; assay: Reduction in intraocular pressure in Wistar rat model of dexamethasone-induced elevated IOP assessed as change in intraocular pressure at 1 % w/v after 3 hrs by tonometry (reference value: 0%); assay type: functional; parameters: scale not given: the % may be the effect or the level left
[22] = organism: Rattus norvegicus; assay: Reduction in intraocular pressure in Wistar rat model of dexamethasone-induced elevated IOP assessed as change in intraocular pressure at 1 % w/v after 2 hrs by tonometry (reference value: 0%); assay type: functional; parameters: scale not given: the % may be the effect or the level left
[23] = Antioxidant activity assessed as DPPH free radical scavenging activity at 50 ug/ml after 30 mins by spectrophotometric analysis; assay type: functional
[24] = organism: Rattus norvegicus; assay: Reduction in intraocular pressure in Wistar rat model of dexamethasone-induced elevated IOP assessed as peak effect time for reduction in intraocular pressure at 1 % w/v by tonometry; assay type: functional, organism-based
[25] = organism: Rattus norvegicus; assay: Reduction in intraocular pressure in Wistar rat model of dexamethasone-induced elevated IOP assessed as change in intraocular pressure in contralateral eye at 1 % w/v after 6 hrs by tonometry (reference value: 0%); assay type: ADME, organism-based; parameters: scale not given: the % may be the effect or the level left; details: in vivo
[26] = organism: Rattus norvegicus; assay: Reduction in intraocular pressure in Wistar rat model of dexamethasone-induced elevated IOP assessed as change in intraocular pressure in contralateral eye at 1 % w/v after 5 hrs by tonometry (reference value: 0%); assay type: ADME, organism-based; parameters: scale not given: the % may be the effect or the level left; details: in vivo
[27] = organism: Rattus norvegicus; assay: Reduction in intraocular pressure in Wistar rat model of dexamethasone-induced elevated IOP assessed as change in intraocular pressure in contralateral eye at 1 % w/v after 0.5 hrs by tonometry (reference value: 0%); assay type: ADME, organism-based; parameters: scale not given: the % may be the effect or the level left; details: in vivo, topical_or_ocular
[28] = Antioxidant activity assessed as DPPH free radical scavenging activity at 100 ug/ml after 30 mins by spectrophotometric analysis; assay type: functional
[29] = organism: Rattus norvegicus; assay: Reduction in intraocular pressure in Wistar rat model of dexamethasone-induced elevated IOP assessed as change in intraocular pressure in contralateral eye at 1 % w/v after 2 hrs by tonometry (reference value: 0%); assay type: ADME, organism-based; parameters: scale not given: the % may be the effect or the level left; details: in vivo

Structure (SMILES) | Activity [1] | Activity [3] | IC50 [4] | logP at 24 h [6] | Activity [10] | Activity [12] | Activity [16] | Activity [2] | Activity [5] | Activity [7] | Activity [8] | Activity [9] | Activity [11] | Activity [13] | Time [14] | Activity [15] | Activity [17] | Activity [18] | Activity [19] | Activity [20] | further results
O=C(CN1CCN(c2ccccc2F)CC1)Nc1nc2ccccc2[nH]1 | 0.87% | 0% | 121.33 µg/mL (≈ 343 µM) | 0.94 | 1.27% | 2.02% | 3.2% | 18.8% | 11.6% | 13.5% | 0.95% | 9.77% | 7.52% | 6.5% | 0.5 h | 46.61% | 70.6% | 56.6% | 0.17% | 2.82% | Activity [21]: 11.7%; Activity [22]: 12.47%; Activity [23]: 37.4%; Tmax [24]: 2.5 h; Activity [25]: 0%; Activity [26]: 0%; Activity [27]: 0.9%; Activity [28]: 47.7%; Activity [29]: 4.07%
O=C(CN1CCN(C(c2ccccc2)c2ccccc2)CC1)Nc1nc2ccccc2[nH]1 | 3% | 1.53% | 88.68 µg/mL (≈ 208 µM) | 1.89 | 4% | 1.13% | 3.43% | 32.9% | 22.1% | 12.4% | 3.67% | 10.38% | 7.33% | 5.83% | 0.5 h | 51.91% | 81.4% | 66.6% | 1.7% | 4.37% | Activity [21]: 8.17%; Activity [22]: 16.47%; Activity [23]: 41.5%; Tmax [24]: 2.5 h; Activity [25]: 0%; Activity [26]: 0%; Activity [27]: 0.77%; Activity [28]: 53.7%; Activity [29]: 5.08%
O=C(CN1CCN(c2ccccc2)CC1)Nc1nc2ccccc2[nH]1 | 3.6% | 1.55% | 165.52 µg/mL (≈ 493 µM) | 1.29 | 5.65% | 3.25% | 4.12% | 11.5% | 4.62% | 13.5% | 1.33% | 7.75% | 7.77% | 4% | 0.5 h | 45.73% | 62.1% | 40.6% | 0.27% | 2.55% | Activity [21]: 12.18%; Activity [22]: 11%; Activity [23]: 24.1%; Tmax [24]: 2.5 h; Activity [25]: 0%; Activity [26]: 0%; Activity [27]: 1.97%; Activity [28]: 32.2%; Activity [29]: 5%
COc1ccccc1N1CCN(CC(=O)Nc2nc3ccccc3[nH]2)CC1 | 1.7% | 0% | 132.65 µg/mL (≈ 363 µM) | 0.97 | 2.5% | 2.1% | 4.1% | 21.3% | 10.8% | 11.02% | 1.73% | 9.48% | 4.53% | 5.37% | 0.5 h | 49.92% | 64.5% | 55.2% | 0.9% | 4.2% | Activity [21]: 7.35%; Activity [22]: 16.5%; Activity [23]: 35.7%; Tmax [24]: 2.5 h; Activity [25]: 0%; Activity [26]: 0%; Activity [27]: 1.27%; Activity [28]: 43.2%; Activity [29]: 4.77%

Continued, in another order:

Activity [1] | Activity [3] | IC50 [4] | logP at 24 h [6] | Activity [10] | Activity [12] | Activity [16] | Structure (SMILES) | Activity [2] | Activity [5] | Activity [7] | Activity [8] | Activity [9] | Activity [11] | Activity [13] | Time [14] | Activity [15] | Activity [17] | Activity [18] | Activity [19] | Activity [20] | further results
1.67% | 0.83% | 148.39 µg/mL (≈ 408 µM) | 1.89 | 2.43% | 2.07% | 2.9% | O=C(CN1CCN(CCc2ccccc2)CC1)Nc1nc2ccccc2[nH]1 | 13.5% | 8.11% | 11.95% | 0.83% | 8.97% | 3.76% | 5.52% | 0.5 h | 37.15% | 62.9% | 51.8% | 0.4% | 2.53% | Activity [21]: 7.1%; Activity [22]: 10.17%; Activity [23]: 22.3%; Tmax [24]: 2 h; Activity [25]: 0%; Activity [26]: 0.43%; Activity [27]: 1.23%; Activity [28]: 38.1%; Activity [29]: 3.63%
2.62% | 0% | 124.91 µg/mL (≈ 435 µM) | 1.09 | 4.8% | 2.37% | 3.73% | CCN1CCN(CC(=O)Nc2nc3ccccc3[nH]2)CC1 | 26.6% | 13.3% | 12.25% | 0.53% | 9.55% | 5.65% | 6.23% | 0.5 h | 45.02% | 65.8% | 57.5% | 0.45% | 4.12% | Activity [21]: 8.93%; Activity [22]: 10.6%; Activity [23]: 35.7%; Tmax [24]: 2.5 h; Activity [25]: 0%; Activity [26]: 0%; Activity [27]: 1.4%; Activity [28]: 45.7%; Activity [29]: 5.22%
0.65% | 0% | 69.97 µg/mL (≈ 208 µM) | 1.05 | 1.07% | 1.15% | 2% | O=C(CN1CCN(c2ccccn2)CC1)Nc1nc2ccccc2[nH]1 | 40.9% | 30.8% | 10.62% | 2.87% | 10% | 5.05% | 7% | 0.5 h | 51.38% | 76.2% | 69.1% | 0.65% | 4% | Activity [21]: 7.82%; Activity [22]: 15.87%; Activity [23]: 50%; Tmax [24]: 2 h; Activity [25]: 0%; Activity [26]: 0%; Activity [27]: 0.85%; Activity [28]: 57.3%; Activity [29]: 4%
